Data set [1] concerns CD-1 female mice. Briefly: mouse tail-flick test (antinociception, %MPE). It is filed as in vivo. The settings on record: for antinociception (%MPE): at 30 min.
Description: Its antinociception (analgesia) in vivo had been investigated using the mouse tail flick test. The mouse tail-flick test is a well-known experimental model to verify the analgesic activity of potential moderate and severe pain relievers including muscarinic agonists (Chau, T. T: Analgesic Testing in Animal Models. Pharmacological Methods in the Control of Inflammation. 195-212. 1989, Alan R. Liss. Inc.). […] Other possible muscarinic agonist activities, such as tremor, sedation, salivation, and hypothermia were observed simultaneously.
(§1) Experiments were carried out using a commercially available tail-flick analgesia meter (model TF-6 analgesia meter, Emdie Instrument Company, Maidens, Va., USA). […] A 10-second cutoff time was used as the maximum latency to avoid tissue damage.
(§2) Control animals received the corresponding vehicle(s) by the same route of administration.
The percentage of maximum possible effect (%MPE) was calculated as follows:
%MPE=[(postdrug latency−predrug latency)÷(cutoff time−predrug latency)]×100%.
All results were expressed as mean±SEM. […] This comparison was carried out at the peak of antinociception (30 minutes). Student's T test (one tailed analysis)(Microsoft Excel 97, Microsoft Corporation, Redmond, Wash., USA) was used to analyse the statistical significance between the two groups. The value of p<0.05 was considered as statistically significant.
as §1, §2
All results were expressed as mean±SEM. […] This comparison was carried out at the peak of antinociception (30 minutes). One tailed Student's T test (Microsoft Excel 97, Microsoft Corporation, […], Wash., USA) was used to analysis the statistical significance between the two groups. The value of p<0.05 was considered as statistically significant.
On the technique in general: Thermal pain tests record how soon the animal reacts.

Data set [2] has as its system CD-1 female mice. Description: observation of muscarinic side effects (tremor, sedation, salivation). The settings on record: at its ED50 dose. It is filed as in vivo, mouse. As to the method: (§3) Observations of tremor, sedation, and salivation were made by close visual inspection of the mice at 5, 15, 30 and 60 minutes after injection of 4-s-[4-propylsulfanyl)-1,2,5-thiadiazol-3-yl]-1-azatricyclo[3.3.1.1<3,7>]decane hydrochloride. Tremor and sedation were scored as +(indicated visible tremor or sedation) or −(indicated non-visible tremor or sedation). Salivation was scored according to the following scale: 0, no sign of saliva within animal's mouth; 1, evidence of saliva in animal's mouth, but not on animal's muzzle; and 2, evidence of saliva in animal's mouth and on muzzle. No other muscarinic receptor mediated activities were observed.
as §3, with “4-s-[4-(propylsulfanyl)-1,2,5-thiadiazol-3-yl]-1-azatricyclo[3.3.1.1<3,7>]decane” for “4-s-[4-propylsulfanyl)-1,2,5-thiadiazol-3-yl]-1-azatricyclo[3.3.1.1<3,7>]decane”

Values joined by “and” are separate entries in the source; they are usually repeats but may differ in a detail not shown here. Equal values may be shown once.

As for `CCCSc1nsnc1[C@H]1[C@@H]2C[C@@H]3C[C@H]1CN(C3)C2.Cl` [4-s-[4-(propylsulfanyl)-1,2,5-thiadiazol-3-yl]-1-azatricyclo[3.3.1.1<3,7>]decane hydrochloride], the “antinociception (%MPE)” value in the data set with CD-1 female mice [1] (0.03 mg/kg sc alone, hydrochloride) was found to be 19%; in the data set on CD-1 female mice [1] (0.05 mg/kg sc alone), 38%. Moreover, in the data set with CD-1 female mice [1] (mouse tail-flick test, more potent than morphine), the “antinociceptive potency relative to morphine” value is reported as 300-1000 fold. The “incidence of muscarinic side effects” value in the data set on CD-1 female mice [2] is listed as “low incidence”. For the compound `CS(=O)(=O)Nc1ccc([N+](=O)[O-])cc1OC1CCCCC1` [NS-398], the antinociceptive effect result with CD-1 female mice [1] (NS-398 0.05 mg/kg ip alone) is given as “without antinociceptive effect”.

For the compound `CC(=O)Nc1ccc(O)cc1` [acetaminophen], in the data set with CD-1 female mice [1] (acetaminophen 60 mg/kg ip alone), the antinociceptive effect result is “without antinociceptive effect”. Take `CC(C)Cc1ccc(C(C)C(=O)O)cc1` (stereo not drawn) [ibuprofen]: the antinociceptive effect result in the data set on CD-1 female mice [1] (ibuprofen 50 mg/kg ip alone) is reported as “without antinociceptive effect”. With `CN1CC[C@]23c4c5ccc(O)c4O[C@H]2[C@@H](O)C=C[C@H]3[C@H]1C5` [morphine], the “antinociception (%MPE)” value is 13% and 25% with CD-1 female mice [1] (morphine 3 mg/kg sc alone); 35% in the data set on CD-1 female mice [1] (morphine 5.0 mg/kg sc alone).

Values taken from patent US6828328B1, “Analgesic combination of muscarinic agonists” (UCB s.A., priority 2002, dated 2004).
